Several values for one entry are separate records, joined by “and”; a condition that tells them apart may be missing. Identical values can stand only once.
Key:
[1] = test system: A. baumannii; assay: Checkerboard assay (antibiotic potentiation); format: cell-based, Acinetobacter baumannii; settings: A. baumannii ATCC 17978
[2] = test system: P. aeruginosa; assay: Checkerboard assay (antibiotic potentiation); format: cell-based, Pseudomonas aeruginosa
[3] = test system: MDR Gram-negative bacteria clinical isolates; assay: Checkerboard assay, summary over strains; format: cell-based; settings: of all 14 clinical isolates; number (%)
[4] = [Mg2+] 25 mM, zoliflodacin + compound 1
[5] = [Mg2+] 0.4–0.5 mM, zoliflodacin + compound 1
[6] = P. aeruginosa 262-101856, antibiotic + compound 1
[7] = P. aeruginosa 264-105354, antibiotic + compound 1
[8] = P. aeruginosa PAO1, 0% FBS, zoliflodacin + compound 1
[9] = P. aeruginosa PAO1, [Mg2+] 0.4–0.5 mM, zoliflodacin + compound 1
[10] = P. aeruginosa PAO1, antibiotic + compound 1

C[C@@H]1CN2c3c(cc4c(N5C(=O)OC[C@@H]5C)noc4c3F)CC3(C(=O)NC(=O)NC3=O)[C@H]2[C@H](C)O1 [Zoliflodacin]
FIC index [1, 4]: x < 0.063 | Interpretation [1, 4]: Synergy (FIC indices of ≤0.5 is synergistic) | MICantibiotic + compound ([1]; [Mg2+] 25 mM, zoliflodacin MIC with 4 µg/mL compound 1): 4 µg/mL | MICantibiotic ([1]; [Mg2+] 25 mM, zoliflodacin alone): >32 µg/mL | Potentiation ([1]; [Mg2+] 0.4–0.5 mM, of zoliflodacin by 4 µg/mL compound 1): ≥128-fold | FIC index [1, 5]: 0.258 | Interpretation [1, 5]: Synergy (FIC indices of ≤0.5 is synergistic) | MICantibiotic + compound ([1]; [Mg2+] 0.4–0.5 mM, zoliflodacin MIC with 4 µg/mL compound 1): 0.031 µg/mL | MICantibiotic ([1]; [Mg2+] 0.4–0.5 mM, zoliflodacin alone): 4 µg/mL | FIC index ([1]; antibiotic + compound 1): 0.258 | Interpretation ([1]; antibiotic + compound 1): Synergy (FIC indices of ≤0.5 is synergistic) | Interpretation ([1]; antibiotic + compound 3): Additive (0.5 < × ≤ 4 is additive) | MICantibiotic + compound ([1]; antibiotic MIC with 8 µg/mL (5 µM) compound 3): 2 µg/mL | MICantibiotic ([1]; antibiotic alone): 2 µg/mL and 4 µg/mL | Potentiation ([1]; of antibiotic by 8 µg/mL (5 µM) compound 3): 1 fold | Interpretation ([2]; P. aeruginosa 259-96916, antibiotic + compound 1): Synergy (FIC indices of ≤0.5 is synergistic) | MICantibiotic + compound ([2]; P. aeruginosa 259-96916, antibiotic MIC with 8 µg/mL (5 µM) compound 1): 0.125 µg/mL | MICantibiotic ([2]; P. aeruginosa 259-96916, antibiotic alone): 128 µg/mL | Potentiation ([2]; P. aeruginosa 259-96916, of antibiotic by 8 µg/mL (5 µM) compound 1): ≥1024-fold | FIC index [2, 6]: x < 0.078 | Interpretation [2, 6]: Synergy (FIC indices of ≤0.5 is synergistic) | MICantibiotic + compound ([2]; P. aeruginosa 262-101856, antibiotic MIC with 8 µg/mL (5 µM) compound 1): 2 µg/mL | MICantibiotic ([2]; P. aeruginosa 262-101856, antibiotic alone): >128 µg/mL | Potentiation ([2]; P. aeruginosa 262-101856, of antibiotic by 8 µg/mL (5 µM) compound 1): ≥128-fold | FIC index [2, 7]: x < 0.066 | Interpretation [2, 7]: Synergy (FIC indices of ≤0.5 is synergistic) | MICantibiotic + compound ([2]; P. aeruginosa 264-105354, antibiotic MIC with 8 µg/mL (5 µM) compound 1): 0.5 µg/mL | MICantibiotic ([2]; P. aeruginosa 264-105354, antibiotic alone): >128 µg/mL | Potentiation ([2]; P. aeruginosa 264-105354, of antibiotic by 8 µg/mL (5 µM) compound 1): ≥512-fold | MICantibiotic + compound ([2]; P. aeruginosa 101243 (colistin-resistant), antibiotic MIC with 8 µg/mL (5 µM) compound 1): >128 µg/mL | MICantibiotic ([2]; P. aeruginosa 101243 (colistin-resistant), antibiotic alone): >128 µg/mL | MICantibiotic + compound ([2]; P. aeruginosa 114228 (colistin-resistant), antibiotic MIC with 8 µg/mL (5 µM) compound 1): >128 µg/mL | MICantibiotic ([2]; P. aeruginosa 114228 (colistin-resistant), antibiotic alone): >128 µg/mL | Potentiation ([2]; P. aeruginosa PAO1, 0% FBS, of zoliflodacin by 8 µg/mL (5 µM) compound 1): ≥32-fold | FIC index [2, 8]: x < 0.125 | Interpretation [2, 8]: Synergy (FIC indices of ≤0.5 is synergistic) | MICantibiotic + compound ([2]; P. aeruginosa PAO1, 0% FBS, zoliflodacin MIC with 8 µg/mL (5 µM) compound 1): 8 µg/mL | MICantibiotic ([2]; P. aeruginosa PAO1, 0% FBS, zoliflodacin alone): >128 µg/mL | Potentiation ([2]; P. aeruginosa PAO1, 10% FBS, of zoliflodacin by 8 µg/mL (5 µM) compound 1): 64 fold | Interpretation ([2]; P. aeruginosa PAO1, 10% FBS, zoliflodacin + compound 1): Synergy (FIC indices of ≤0.5 is synergistic) | MICantibiotic + compound ([2]; P. aeruginosa PAO1, 10% FBS, zoliflodacin MIC with 8 µg/mL (5 µM) compound 1): 8 µg/mL | MICantibiotic ([2]; P. aeruginosa PAO1, 10% FBS, zoliflodacin alone): 512 µg/mL | Potentiation ([2]; P. aeruginosa PAO1, 25% FBS, of zoliflodacin by 8 µg/mL (5 µM) compound 1): 1 fold | Interpretation ([2]; P. aeruginosa PAO1, 25% FBS, zoliflodacin + compound 1): Additive (0.5 < × ≤ 4 is additive) | MICantibiotic + compound ([2]; P. aeruginosa PAO1, 25% FBS, zoliflodacin MIC with 8 µg/mL (5 µM) compound 1): 1024 µg/mL | MICantibiotic ([2]; P. aeruginosa PAO1, 25% FBS, zoliflodacin alone): 1024 µg/mL | Potentiation ([2]; P. aeruginosa PAO1, 50% FBS, of zoliflodacin by 8 µg/mL (5 µM) compound 1): 1 fold | Interpretation ([2]; P. aeruginosa PAO1, 50% FBS, zoliflodacin + compound 1): Additive (0.5 < × ≤ 4 is additive) | MICantibiotic + compound ([2]; P. aeruginosa PAO1, 50% FBS, zoliflodacin MIC with 8 µg/mL (5 µM) compound 1): 1024 µg/mL | MICantibiotic ([2]; P. aeruginosa PAO1, 50% FBS, zoliflodacin alone): 1024 µg/mL | Potentiation ([2]; P. aeruginosa PAO1, [Mg2+] 25 mM, of zoliflodacin by 8 µg/mL (5 µM) compound 1): 1 fold | Interpretation ([2]; P. aeruginosa PAO1, [Mg2+] 25 mM, zoliflodacin + compound 1): Additive (0.5 < × ≤ 4 is additive) | MICantibiotic + compound ([2]; P. aeruginosa PAO1, [Mg2+] 25 mM, zoliflodacin MIC with 8 µg/mL (5 µM) compound 1): 1024 µg/mL | MICantibiotic ([2]; P. aeruginosa PAO1, [Mg2+] 25 mM, zoliflodacin alone): 1024 µg/mL | Potentiation ([2]; P. aeruginosa PAO1, [Mg2+] 0.4–0.5 mM, of zoliflodacin by 8 µg/mL (5 µM) compound 1): ≥32-fold | FIC index [2, 9]: x < 0.125 | Interpretation [2, 9]: Synergy (FIC indices of ≤0.5 is synergistic) | MICantibiotic + compound ([2]; P. aeruginosa PAO1, [Mg2+] 0.4–0.5 mM, zoliflodacin MIC with 8 µg/mL (5 µM) compound 1): 8 µg/mL | MICantibiotic ([2]; P. aeruginosa PAO1, [Mg2+] 0.4–0.5 mM, zoliflodacin alone): >128 µg/mL | FIC index [2, 10]: x < 0.125 | Interpretation [2, 10]: Synergy (FIC indices of ≤0.5 is synergistic) | Interpretation ([2]; P. aeruginosa PAO1, antibiotic + compound 3): Additive (0.5 < × ≤ 4 is additive) | MICantibiotic + compound ([2]; P. aeruginosa PAO1, antibiotic MIC with 8 µg/mL (5 µM) compound 1): 8 µg/mL | MICantibiotic + compound ([2]; P. aeruginosa PAO1, antibiotic MIC with 8 µg/mL (5 µM) compound 3): 128 µg/mL | MICantibiotic ([2]; P. aeruginosa PAO1, antibiotic alone): 128 µg/mL and >128 µg/mL | Potentiation ([2]; P. aeruginosa PAO1, of antibiotic by 8 µg/mL (5 µM) compound 1): ≥32-fold | Potentiation ([2]; P. aeruginosa PAO1, of antibiotic by 8 µg/mL (5 µM) compound 3): 1 fold | clinical isolates in which the antibiotic was synergized by compound 1 [3]: 12 (86%) strains

Reference: article PMC12587545, “Noncytotoxic polymyxin derivatives enhance antibiotic action against multidrug-resistant Gram-negative bacteria” (Antimicrobial Agents and Chemotherapy, 2025)
